Source: patent US20140128402A1, “PHARMACEUTICAL COMBINATION” (IPCA Laboratories Limited, priority 2011, published 2014)

Test system: STZ-induced diabetic rats
Test: Study No 1: blood glucose in STZ-induced diabetic rats (HCQ with sitagliptin)
Type: in vivo, Wistar rats
Description: In this experiment 48 Wistar rats weighing 130-150 g of either sex were divided randomly into 8 groups consisting of 6 rats each. The study drugs suspended in vehicle [0.1% w/v suspension of Tween 80 and carboxymethylcellulose (CMC) in water] were administered for orally for 21 days. Group 1 (normal vehicle control) consisted of normal rats that neither received streptozotocin nor any test drug; Group 2 served as streptozotocin induced diabetic control (Diabetes was induced in rats by single administration of streptozotocin (60 mg/kg/i.p) dissolved in 0.1 M-citrate buffer, pH 4.5). Forty-eight hours later, blood samples were collected and glucose levels were determined to confirm the development of diabetes.
Blood glucose level was measured in normal and experimental rats at 1st, 7th, 14th and 21st day of administration. For other biochemical parameters i.e. Insulin, HbA1c, Triglycerides, Total Cholesterol, HDL, SGOT, SGPT, Total Protein, Albumin, Creatinine and Urea Blood samples were collected 1 h after the last dose administration from 18 h fasted rats through the retro-orbital plexus under chloroform anesthesia and analyzed using autoanalyzer (Microlab 2000). Other parameters like body weight, food intake and water intake were evaluated weekly till day 21st.

Which Plasma glucose concentration (1st day, subtherapeutic dose: STG 5.5, HCQ 23, STG+HCQ 5.5+23 mg/kg oral) does the source give for `CCN(CCO)CCCC(C)Nc1ccnc2cc(Cl)ccc12` (stereo not drawn) [HCQ, Hydroxychloroquine] here?
The Plasma glucose concentration was 253.33 ± 24.86 mg/dL.

And the Plasma glucose concentration (1st day, therapeutic dose: STG 11, HCQ 46, STG+HCQ 11+46 mg/kg oral)?
Its Plasma glucose concentration is 267.83 ± 10.53 mg/dL.

What about the Plasma glucose concentration (7th day, subtherapeutic dose: STG 5.5, HCQ 23, STG+HCQ 5.5+23 mg/kg oral) of the same compound?
Its Plasma glucose concentration is 248.67 ± 24.63 mg/dL.

What about the Plasma glucose concentration (7th day, therapeutic dose: STG 11, HCQ 46, STG+HCQ 11+46 mg/kg oral) of the same compound?
The Plasma glucose concentration was 243.83 ± 10.78 mg/dL.

What about the Plasma glucose concentration (14th day, subtherapeutic dose: STG 5.5, HCQ 23, STG+HCQ 5.5+23 mg/kg oral) of the same compound?
Its Plasma glucose concentration is 241.33 ± 24.73 mg/dL.

And the Plasma glucose concentration (14th day, therapeutic dose: STG 11, HCQ 46, STG+HCQ 11+46 mg/kg oral, 46 mg/kg)?
The Plasma glucose concentration was 230.00 ± 12.96 mg/dL.

What about the Plasma glucose concentration (14th day, therapeutic dose: STG 11, HCQ 46, STG+HCQ 11+46 mg/kg oral, listed as hydroxychloroquine, 46 mg/kg) of the same compound?
Its Plasma glucose concentration is “significant improvement”.

What about the Plasma glucose concentration (21st day, subtherapeutic dose: STG 5.5, HCQ 23, STG+HCQ 5.5+23 mg/kg oral) of the same compound?
The Plasma glucose concentration was 232.00 ± 19.92 mg/dL.

What about the Plasma glucose concentration (21st day, therapeutic dose: STG 11, HCQ 46, STG+HCQ 11+46 mg/kg oral) of the same compound?
The Plasma glucose concentration was 207.67 ± 7.53 mg/dL.
